Results taken from patent US6692754B1, “Cosmetic composition” (Kyowa Hakko Kogyo Co., Ltd., priority 1999, dated 2004).

How the values were obtained:
[1] = tested on: skin of cubital fossa of healthy female panelists; assay: Evaluation of moisture retention function (1): continuous application, skin conductivity (SKICON-200); format: in vivo, human
Protocol: Change in the moisture retention function by continuous use was examined for the evaluation of the skin quality-improving effect of Compositions (1)-(8) prepared in Examples 1-8. The compositions are applied to the test part/cubital fossa of 4 healthy female panelists in 23-28 years old in an amount of 2 μl/cm^2 twice a day in the morning and evening for 3 weeks or 2 months. Moisture content in the test part before the application of the cosmetic composition was measured in the morning with the elapse of time. The probe was contacted vertically on the test part, and the skin conductivity (=moisture content) was assayed with SKICON-200 (manufactured by IBS) as a measuring machine. When the measured value is high, it means that the moisture content is high. Change in the skin conductivity (relative conductivity) on the test part was calculated according to the following formula 3, as a relative value to the change in the conductivity on the non-treated part. [formula]

[2] = tested on: mouse epidermal cells; assay: Mouse epidermal cell proliferation activity (MTT); format: cell-based, C3H mouse; details: for Epidermal Cell Proliferation Activity: 6 days, 0 μM = 100
Protocol: Epidermis was peeled from 3 days old C3H mouse according to Method of Tanigaki, et al., [The Japanese Journal of Dermatology, 1145-1152 (1989)].
The epidermis was treated with 0.25% trypsin and centrifuged at 1500 rpm for 5 minutes to obtain the cells. The cells were inoculated onto DMEM medium containing 10% fetal bovine serum and cultivated at 37° C. for 1 day to give the mouse epidermal cells.
The mouse epidermal cells were cultivated on MCDB 153 medium free of serum containing the test compound (Hyp or N-Acetyl-Hyp) for 6 days, mixed with 1/10 volume of 5 mg/ml MTT reagent in phosphate buffer (pH 7.4, free of calcium and magnesium), and then cultivated in an atmosphere of 5% CO2 at 37° C. for 4 hours. After removing the medium, MTT formazan in the cell was extracted with isopropanol containing 0.4 mol/L hydrochloric acid, and the absorbance at 570 nm was measured in comparison with that of 630 nm.

[3] = tested on: epidermal keratinized cells derived from human neonate; assay: Human epidermal cell proliferation activity (MTT method); format: cell-based; details: for Epidermal Cell Proliferation Activity: 4 days, 0 mM = 100
Protocol: The human epidermal cell proliferation activity was assayed according to MTT method [Cell Culture III, 4477-4482 (1984)] by incorporating 3-(4,5-dimethylthiazol-2-yl)-2,5-diphenyltetrazolium bromide (MTT) into cells and measuring the resultant MTT formazan by colorimetry at the wave length of 570 nm (Reference, 650 nm).
That is, epidermal keratinized cells derived from human neonate (Sanko Junyaku Co., Ltd.) was cultivated in KGM medium (Sanko Junyaku Co., Ltd.) in an atmosphere of 5% CO2 at 37° C. by the stationary phase, mixed with Hyp and N-Acetyl-Hyp and cultivated for 4 days. Then, the culture broth was mixed with 1/10 volume of 5 mg/ml MTT reagent in a phosphate buffer (pH 7.4, free of calcium and magnesium), and cultivated in an atmosphere of 5% CO2 at 37° C. for 4 hours. After removing the medium, MTT formazan in the cell was extracted with isopropanol containing 0.4 mol/L hydrochloric acid, and the absorbance at 570 nm was measured in comparison with that of 630 nm.

[4] = tested on: Fibroblast derived from human neonate; assay: Collagen synthesis promotion activity in human fibroblast (3H-glycine incorporation, collagenase digestion); format: cell-based; details: for Collagen Synthetic Promotion Activity: 72 hours, relative to control (0 mM = 100); for Collagen synthetic promotion activity (in words): human fibroblast
Protocol: Assay of synthetic collagen was conducted by the following method according to “Experimental Method of Collagen” (Written by Nagai, et al., Kodansha Scientific).
Fibroblast derived from human neonate (Sanko Junyaku Co., Ltd.) was cultivated in DMEM medium [Virology, 8, 396 (1959)] containing 10% fetal bovine serum under conditions of 5% CO2 at 37° C. by the stationary phase. ^3H marked glycine and a test compound was added thereto, and further cultivated for 72 hours. DMEM medium was prepared by mixing Dulbecco's Modified Eagle's Medium “Nissui” (2) (manufactured by Nissui Pharmaceutical) with 4 mmol/L glutamine, an optimum dose of sodium hydrogencarbonate, 10 mmol/L HEPES, 50 U/ml penicillin G potassium, 50 μg/ml streptomycin and 10% fetal bovine serum.
To the resultant culture broth was added 500 μmol/L phenylmethanesulfonyl fluoride (PMSF), and the cells and medium were recovered, crashed with a sonicater and the protein was extracted.
To the extract were added 100 μmol/L bovine serum albumin (BSA) and 10% trichloroacetic acid (TCA), and the resultant mixture was centrifuged at 3000 rpm for 5 minutes to recover the precipitate.
To the precipitate was added 0.2 mol/L sodium hydroxide at a density of 8 μl per 1 cm^2 of the bottom area of culture vessel used for said cultivation, and the resultant mixture was neutralized with an equivalent amount of 1 mol/L phosphate buffer.
To 100 μl of the resultant protein solution were added 25 mmol/L calcium chloride (10 μmol/L), 62.5 mmol/L N-ethylmaleimide (20 μmol/L) and 20 units of collagenase (manufactured by Wako Pure Chemical Industries, Ltd.; for analyzing the collagen), and the resultant mixture was allowed to react at 37° C. for 90 minutes.
The reaction mixture was filtered with an ultrafilter (molecular weight: 10,000), and the protein fraction of the filtrate was subjected to radiation activity (CDP) assay, which was assigned as freshly prepared collagen. The radiation activity (NCDP) of the non-filtered protein fraction was assayed, and collagen synthetic ratio was calculated according to the following formula 1.
Relative collagen synthetic promotion activity (change in the collagen synthesis) was calculated according to the following formula 2, comparing with the relative value of the collagen synthetic ratio of the test compounds against control. [formula] [formula]

[5] = tested on: skin of cubital fossa of healthy female panelists; assay: Evaluation of moisture retention function (2): single application, skin conductivity; format: in vivo, human
Protocol: Concentration dependency on moisture retention effect of N-Acetyl-Hyp was evaluated by the single application. The moisture retention was assayed on the test part/cubital fossa of 12 healthy female panelists in 23-32 years old, and each of the test compositions was applied thereto in an amount of 2 μl/cm^2 and allowed to leave. Three hours later, the moisture content of the test part was measured, and the moisture retention effect was evaluated in terms of the relative conductivity when the moisture content before the application was defined as 100%.

Row | SMILES | Skin moisture content / moisture retention function on continuous application (in words) [1] | Epidermal proliferation activity (in words) [2] | Epidermal Cell Proliferation Activity ([2]; 1 μM) | Epidermal Cell Proliferation Activity ([2]; 3 μM) | Epidermal Cell Proliferation Activity ([2]; 10 μM) | Concentration dependence of proliferation activity [3] | Epidermal cells proliferation activity (in words) [3] | Epidermal Cell Proliferation Activity ([3]; 10 mM) | Epidermal Cell Proliferation Activity ([3]; 100 mM) | Collagen Synthetic Promotion Activity ([4]; 0.1 mM test compound) | Collagen Synthetic Promotion Activity ([4]; 1 mM test compound) | Collagen synthetic promotion activity (in words) [4] | Moisture retention improving effect compared with collagen [1] | Relative Conductivity ([5]; 1% N-Acetyl-Hyp, single application 2 μl/cm2, three hours later, before application = 100%) | Relative Conductivity ([5]; 3% N-Acetyl-Hyp, single application, three hours later) | Relative Conductivity ([5]; 5% N-Acetyl-Hyp, single application, three hours later) | Relative Conductivity ([5]; 10% N-Acetyl-Hyp, single application, three hours later) | Moisture retention effect by single treatment (in words) ([5]; single treatment)
1 | O=C(O)[C@@H]1C[C@@H](O)CN1 [Hyp, trans-4-hydroxy-L-proline] | an improvement in the moisture retention function was observed | found | 88.6 | 107.5 | 126 | Proliferation activity depending on the concentration was found | observed | 111.6 | 135.1 | 108.3 | 117.1 | observed |  |  |  |  |  | 
2 | CC(=O)N1C[C@H](O)C[C@H]1C(=O)O [N-Acetyl-Hyp, N-acetyl-trans-4-hydroxy-L-proline] | an improvement in the moisture retention function was observed | found | 110.7 | 118.2 | 121.9 |  | observed | 108.7 | 85.9 | 121.1 | 119.7 | observed | an improving effect exceeding that of collagen was observed | 100% | 129% | 186% | 189% | concentration dependent-moisture retention effect
